From patent publication US11498899B2, “Nitrone herbicides” (FMC Corporation, priority 2016, dated 2022)

What was measured:
[1] = system: barnyardgrass (Echinochloa crus-galli); test: Test A preemergence, visual injury rating 0-100 (0 no effect, 100 complete control); assay type: in vivo; conditions: for Barnyardgrass plant response rating (0 to 100 scale): 125 g ai/ha; for Barnyardgrass plant response rating: 500 g ai/ha, 0 to 100 scale
[2] = system: foxtail, green (green foxtail, Setaria viridis); test: Test A preemergence, visual injury rating 0-100; assay type: in vivo; conditions: for Foxtail, Green plant response rating (0 to 100 scale): 125 g ai/ha; for Foxtail, Green plant response rating: 500 g ai/ha, 0 to 100 scale
kochia (Kochia scoparia) [3] = test: Test A preemergence, visual injury rating 0-100; assay type: in vivo; conditions: for Kochia plant response rating (0 to 100 scale): 125 g ai/ha; for Kochia plant response rating: 500 g ai/ha, 0 to 100 scale
[4] = system: pigweed (Amaranthus retroflexus); test: Test A preemergence, visual injury rating 0-100; assay type: in vivo; conditions: for Pigweed plant response rating (0 to 100 scale): 125 g ai/ha; for Pigweed plant response rating: 500 g ai/ha, 0 to 100 scale
[5] = system: ragweed (common ragweed, Ambrosia elatior); test: Test A preemergence, visual injury rating 0-100; assay type: in vivo; conditions: for Ragweed plant response rating (0 to 100 scale): 125 g ai/ha; for Ragweed plant response rating: 500 g ai/ha, 0 to 100 scale
[6] = system: ryegrass, Italian (Italian ryegrass, Lolium multiflorum); test: Test A preemergence, visual injury rating 0-100; assay type: in vivo; conditions: for Ryegrass, Italian plant response rating (0 to 100 scale): 125 g ai/ha; for Ryegrass, Italian plant response rating: 500 g ai/ha, 0 to 100 scale
[7] = system: barnyardgrass (Echinochloa crus-galli); test: Test A postemergence, visual injury rating 0-100; assay type: in vivo; conditions: 0 to 100 scale
[8] = system: blackgrass (Alopecurus myosuroides); test: Test A postemergence, visual injury rating 0-100; assay type: in vivo; conditions: 0 to 100 scale
corn (Zea mays) = test: Test A postemergence, visual injury rating 0-100; assay type: in vivo; conditions: 0 to 100 scale
[9] = system: foxtail, green (green foxtail, Setaria viridis); test: Test A postemergence, visual injury rating 0-100; assay type: in vivo; conditions: 0 to 100 scale
[10] = system: galium (catchweed bedstraw, Galium aparine); test: Test A postemergence, visual injury rating 0-100; assay type: in vivo; conditions: 0 to 100 scale
kochia (Kochia scoparia) [11] = test: Test A postemergence, visual injury rating 0-100; assay type: in vivo; conditions: 0 to 100 scale
[12] = system: pigweed (Amaranthus retroflexus); test: Test A postemergence, visual injury rating 0-100; assay type: in vivo; conditions: 0 to 100 scale
[13] = system: ragweed (common ragweed, Ambrosia elatior); test: Test A postemergence, visual injury rating 0-100; assay type: in vivo; conditions: 0 to 100 scale
[14] = system: ryegrass, Italian (Italian ryegrass, Lolium multiflorum); test: Test A postemergence, visual injury rating 0-100; assay type: in vivo; conditions: 0 to 100 scale
[15] = system: wheat (Triticum aestivum); test: Test A postemergence, visual injury rating 0-100; assay type: in vivo; conditions: 0 to 100 scale
[16] = system: ducksalad (Heteranthera limosa); test: Test B flooded paddy test, visual rating 0-100; conditions: Flood, 250 g ai/ha, applied to paddy water, rated after 13 to 15 days
[17] = system: barnyardgrass (Echinochloa crus-galli); test: Test B flooded paddy test, visual rating 0-100; conditions: Flood, 250 g ai/ha, applied to paddy water, rated after 13 to 15 days
rice (Oryza sativa) = test: Test B flooded paddy test, visual rating 0-100 (0 no effect, 100 complete control); conditions: Flood, 250 g ai/ha, applied to paddy water, rated after 13 to 15 days

Row | Compound | Barnyardgrass plant response rating (0 to 100 scale) [1] | Barnyardgrass plant response rating [1] | Foxtail, Green plant response rating (0 to 100 scale) [2] | Foxtail, Green plant response rating [2] | Kochia plant response rating (0 to 100 scale) (kochia (Kochia scoparia) [3]) | Kochia plant response rating (kochia (Kochia scoparia) [3]) | Pigweed plant response rating (0 to 100 scale) [4] | Pigweed plant response rating [4] | Ragweed plant response rating (0 to 100 scale) [5] | Ragweed plant response rating [5] | Ryegrass, Italian plant response rating (0 to 100 scale) [6] | Ryegrass, Italian plant response rating [6] | Barnyardgrass plant response rating ([7]; 125 g ai/ha) | Barnyardgrass plant response rating ([7]; 500 g ai/ha) | Blackgrass plant response rating ([8]; 125 g ai/ha) | Blackgrass plant response rating ([8]; 500 g ai/ha) | Corn plant response rating (corn (Zea mays); 125 g ai/ha) | Corn plant response rating (corn (Zea mays); 500 g ai/ha) | Foxtail, Green plant response rating ([9]; 125 g ai/ha) | Foxtail, Green plant response rating ([9]; 500 g ai/ha) | other results
1 | CC1=[N+]([O-])C(C(=O)Nc2cccc(F)c2F)C(c2ccccc2F)C1 (racemic) [Compound 21] | 10 | 90 | 20 | 90 | 0 | 40 | 0 | 0 | 0 | 0 | 0 | 0 | 0 | 50 | 0 | 20 | 0 | 20 | 0 | 20 | Galium plant response rating ([10]; 125 g ai/ha): 0; Galium plant response rating ([10]; 500 g ai/ha): 0; Kochia plant response rating (kochia (Kochia scoparia) [11]; 125 g ai/ha): 0; Kochia plant response rating (kochia (Kochia scoparia) [11]; 500 g ai/ha): 0; Pigweed plant response rating ([12]; 125 g ai/ha): 0; Pigweed plant response rating ([12]; 500 g ai/ha): 0; Ragweed plant response rating ([13]; 125 g ai/ha): 0; Ragweed plant response rating ([13]; 500 g ai/ha): 0; Ryegrass, Italian plant response rating ([14]; 125 g ai/ha): 0; Ryegrass, Italian plant response rating ([14]; 500 g ai/ha): 0; Wheat plant response rating ([15]; 125 g ai/ha): 0; Wheat plant response rating ([15]; 500 g ai/ha): 0; Ducksalad plant response rating (0 to 100 scale) [16]: 80; Barnyardgrass plant response rating (0 to 100 scale) [17]: 40; Rice plant response rating (0 to 100 scale) (rice (Oryza sativa)): 0
2 | CC1=[N+]([O-])C(C(=O)Nc2cccc(C#N)c2F)C(c2ccc(C(F)(F)F)cc2)C1 (racemic) [Compound 28] | 80 | 100 | 90 | 100 | 0 | 70 | 90 | 100 | 80 | 100 | 20 | 20 | 20 | 90 | 0 | 40 | 0 | 0 | 30 | 90 | Galium plant response rating ([10]; 125 g ai/ha): 70; Galium plant response rating ([10]; 500 g ai/ha): 70; Kochia plant response rating (kochia (Kochia scoparia) [11]; 125 g ai/ha): 0; Kochia plant response rating (kochia (Kochia scoparia) [11]; 500 g ai/ha): 20; Pigweed plant response rating ([12]; 125 g ai/ha): 0; Pigweed plant response rating ([12]; 500 g ai/ha): 70; Ragweed plant response rating ([13]; 125 g ai/ha): 0; Ragweed plant response rating ([13]; 500 g ai/ha): 70; Ryegrass, Italian plant response rating ([14]; 125 g ai/ha): 0; Ryegrass, Italian plant response rating ([14]; 500 g ai/ha): 20; Wheat plant response rating ([15]; 125 g ai/ha): 0; Wheat plant response rating ([15]; 500 g ai/ha): 0; Ducksalad plant response rating (0 to 100 scale) [16]: 0; Barnyardgrass plant response rating (0 to 100 scale) [17]: 30; Rice plant response rating (0 to 100 scale) (rice (Oryza sativa)): 0
3 | CSc1ccccc1NC(=O)C1C(c2ccc(C(F)(F)F)cc2)CC(C)=[N+]1[O-] (racemic) [Compound 29] | 0 | 80 | 20 | 100 | 0 | 20 | 10 | 90 | 20 | 100 | 0 | 20 | 10 | 30 | 20 | 30 | 0 | 0 | 20 | 50 | Galium plant response rating ([10]; 125 g ai/ha): 40; Galium plant response rating ([10]; 500 g ai/ha): 60; Kochia plant response rating (kochia (Kochia scoparia) [11]; 125 g ai/ha): 0; Kochia plant response rating (kochia (Kochia scoparia) [11]; 500 g ai/ha): 0; Pigweed plant response rating ([12]; 125 g ai/ha): 10; Pigweed plant response rating ([12]; 500 g ai/ha): 30; Ragweed plant response rating ([13]; 125 g ai/ha): 0; Ragweed plant response rating ([13]; 500 g ai/ha): 60; Ryegrass, Italian plant response rating ([14]; 125 g ai/ha): 0; Ryegrass, Italian plant response rating ([14]; 500 g ai/ha): 0; Wheat plant response rating ([15]; 125 g ai/ha): 0; Wheat plant response rating ([15]; 500 g ai/ha): 0; Ducksalad plant response rating (0 to 100 scale) [16]: 0; Barnyardgrass plant response rating (0 to 100 scale) [17]: 0; Rice plant response rating (0 to 100 scale) (rice (Oryza sativa)): 0
